# Article PMC11322472, “Enhancing [^177Lu]Lu-DOTA-TATE therapeutic efficacy in vitro by combining it with metronomic chemotherapeutics” (EJNMMI Research, 2024)
# Read-outs that look alike come from different tables or passages of the source.
# Assays:
# [1] = test system: BON1 cells; assay type: cell-based, human; conditions: parental BON1 cells; label = chemotherapeutic pre-treatment; MTT at day 7, N = 3
# Description: (§1) Excess MTT was then removed. Formazan crystals were dissolved with 50 μL/well in dimethylsulfoxide (DMSO) for 2 min at room temperature (RT) under gentle agitation. Well absorbance at 570 nm was then measured on a UV/V is absorbance microplate reader (SPECTROstar® Nano, BMG LABTECH). Metabolic viability, following signal-to-background correction, was calculated as the percentage signal in treated cells normalised to the signal in untreated cells.
# [2] = test system: U2OS cells; assay type: cell-based, human; conditions: parental U2OS cells; label = chemotherapeutic pre-treatment; MTT at day 7, N = 3
# Description: as §1
# [3] = test system: U2OS + SSTR2A cells; test: X-ray radiotherapy viability post chemotherapeutics; assay type: cell-based, human; conditions: 24 h 2 mM HU, 4 ng/mL GEM, 200 ng/mL TRI, X-ray 0, 2 and 4 Gy, N = 3 (Figure S7)
# Description: (§2) Cells where then treated with chemotherapeutics for 24 hours at 2 mM HU, 4 ng/mL GEM and 200 ng/mL TRI. Following chemotherapeutics, media was refreshed, and cells were X-ray irradiated at 0 (sham-irradiated), 2 and 4 Gy using the image-guided small animal radiotherapy system, SmART+, X-ray irradiator (Precision X-ray Irradiation). The calibrated dose-rate was 6.1796 Gy.min^-1; the X-ray beam used for treatment was set at a voltage of 225 kV, a current of 20 mA and passed through a 0.3 mm Cu filter. Viability analyses were then carried out as above.
# [4] = test system: U2OS cells; test: as above; assay type: cell-based, human; conditions: 24 h 2 mM HU, 4 ng/mL GEM, 200 ng/mL TRI, X-ray 0, 2 and 4 Gy, N = 3 (Figure S7)
# Description: as §2
# [5] = test system: BON1 + SSTR2A cells; test: Viability after chemotherapeutic agents (GI50, MTT); assay type: cell-based, human; conditions: 24 h treatment, further 5 days growth, from fitted curves
# Description: (§3) U2OS/U2OS + SSTR2A and BON1/BON1 + SSTR2A cells were seeded in 96-well plates at 2 × 10^3 and 4 × 10^3 cells/well, respectively, and allowed to adhere overnight in the incubator. Cells were then treated with a range of hydroxyurea, gemcitabine, and triapine concentrations for 24 h. Hydroxyurea in U2OS/U2OS + SSTR2A cells was used at 152 µg/mL for 24 h. Chemotherapeutics were then removed, and cells washed with PBS prior to returning to the incubator in fresh medium. Cells were then grown for a further 5 days post-chemotherapeutics prior to assessing metabolic viability, as described above. Chemotherapeutic concentrations needed to inhibit population growth by 50% (GI50) were then calculated.
# [6] = test system: U2OS + SSTR2A cells; test: as above; assay type: cell-based; conditions: Homo sapiens, 24 h treatment, further 5 days growth, from fitted curves, N = 3
# Description: as §3
# [7] = test system: U2OS + SSTR2A cells; test: [^177Lu]Lu-DOTA-TATE uptake (with or without chemotherapeutic pre-treatment); conditions: 25 nM DOTA-TATE, mean ± SD
# Description: (§5) 1.5 × 10^5 U2OS/U2OS + SSTR2A or 2 × 10^5 BON1/BON1 + SSTR2A cells were seeded into 6-well plates in medium and allowed to adhere overnight in the incubator. The following day, 0.70–0.93 MBq (U2OS/U2OS + SSTR2A) or 0.75–1.03 MBq (BON1/BON1 + SSTR2A) [^177Lu]Lu-DOTA-TATE was added to wells (25 nM total DOTA-TATE) and incubated for 24 h. Excess [^177Lu]Lu-DOTA-TATE was then removed from wells and pooled together with two PBS washes (“Unbound” fraction). Cell-associated activity was harvested from wells by lysing cells with 0.5 M NaOH solution and pooled with a subsequent PBS wash (“Bound” fraction). Data was presented as percentage added activity (%AA) and activity per cell (Bq/cell).
# 1.5 × 10^5 U2OS/U2OS + SSTR2A or 2 × 10^5 BON1/BON1 + SSTR2A cells were seeded into 6-well plates in DMEM-HG or DMEM/F-12 medium, respectively, and allowed to adhere overnight in the incubator. Cells where then treated with chemotherapeutics for 24 h at the following concentrations: 152 µg/mL hydroxyurea, 4 ng/mL gemcitabine, and 200 ng/mL triapine for U2OS/U2OS + SSTR2A cells; and 152 µg/mL hydroxyurea, 2 ng/mL gemcitabine, and 100 ng/mL triapine for BON1/BON1 + SSTR2A cells. Following a 4 h recovery period after chemotherapeutics, medium was replaced with 1 mL of medium containing [^177Lu]Lu-DOTA-TATE for 24 h at 0.7–0.93 MBq for U2OS/U2OS + SSTR2A cells or 0.75–1.03 MBq for BON1/BON1 + SSTR2A cells. […] Uptake and viability studies were then carried out as above.
# [8] = test system: U2OS + SSTR2A cells; test: Subcellular localisation of [^177Lu]Lu-DOTA-TATE; conditions: no chemotherapeutic (Untreated), 24 h, 25 nM, mean ± SD, N = 3
# Description: (§6) Subcellular localisation of [^177Lu]Lu-DOTA-TATE in cells followed the protocol for the uptake assays above, except that, following removal of excess [^177Lu]Lu-DOTA-TATE, cells were incubated with ice-cold 0.1 M glycine (pH 2.5) for 10 min prior to pooling with a further PBS wash (“Membrane” fraction). Cells were then detached with Accutase and diluted in medium prior to pelleting and transferring the supernatant to the “Cytoplasm” fraction. The cell pellet was resuspended in ice-cold cell lysis buffer (25 mM KCl, 5 mM MgCl2, 10 mM Tris-HCl, and 0.5% v/v IGEPAL CA-630) and incubated for 15 min. Intact nuclei were pelleted and separated from lysed cells by centrifugation (10,000 g, 3 min) and the supernatant removed and combined with the previous portion of the “Cytoplasm” fraction. Pelleted nuclei were resuspended in phosphate-buffered saline (PBS) and transferred to tubes to gamma counting (“Nuclear” fraction). The percentage distribution of [^177Lu]Lu-DOTA-TATE in cells was then calculated for the membrane, cytoplasm, and nucleus.
# [9] = test system: BON1 + SSTR2A cells; test: Subcellular localisation of [^177Lu]Lu-DOTA-TATE; conditions: no chemotherapeutic (Untreated), 24 h, 25 nM, mean ± SD, N = 3
# Description: as §6
# [10] = test system: BON1 cells; test: [^177Lu]Lu-DOTA-TATE uptake; assay type: cell-based, human; conditions: BON1 parental cells, 24-hour incubation, 25 nM DOTA-TATE, 0.74–1.03 MBq, mean ± SD, N = 3–4
# Description: as §5
# [11] = test system: U2OS cells; test: [^177Lu]Lu-DOTA-TATE uptake; assay type: cell-based, human; conditions: U2OS parental cells, 24-hour incubation, 25 nM DOTA-TATE, 0.74–1.03 MBq, mean ± SD, N = 3–4
# Description: as §5
# [12] = test system: BON1 + SSTR2A cells; test: [^177Lu]Lu-DOTA-TATE uptake; assay type: cell-based, human; conditions: 24-hour incubation, 25 nM DOTA-TATE, 0.74–1.03 MBq, mean ± SD, N = 3–4
# Description: as §5
# 1.5 × 10^5 U2OS/U2OS + SSTR2A or 2 × 10^5 BON1/BON1 + SSTR2A cells were seeded into 6-well plates in DMEM-HG or DMEM/F-12 medium, respectively, and allowed to adhere overnight in the incubator. Cells where then treated with chemotherapeutics for 24 h at the following concentrations: 152 µg/mL hydroxyurea, 4 ng/mL gemcitabine, and 200 ng/mL triapine for U2OS/U2OS + SSTR2A cells; and 152 µg/mL hydroxyurea, 2 ng/mL gemcitabine, and 100 ng/mL triapine for BON1/BON1 + SSTR2A cells. Following a 4 h recovery period after chemotherapeutics, medium was replaced with 1 mL of medium containing [^177Lu]Lu-DOTA-TATE for 24 h at 0.7–0.93 MBq for U2OS/U2OS + SSTR2A cells or 0.75–1.03 MBq for BON1/BON1 + SSTR2A cells. […]
# [13] = test system: U2OS + SSTR2A cells; test: [^177Lu]LuCl3 and DOTA-TATE viability (MTT); assay type: cell-based, human; conditions: MTT after 7 days
# Description: 2x10^3 U2OS or U2OS+SSTR2A cells, after treatment for 24 hours with [^177Lu]LuCl3 (0.97 MBq) or DOTA-TATE (25 nM, U2OS+SSTR2A only), were reseeded in technical sextuplet wells in 96-well plates containing a final media volume of 180 µL/well. Dedicated wells with no cells present served as background signal controls. Plates were placed in the incubator and cells allowed to adhere and grow for 7 days. After 7 days, DMEM-HG was aspirated and replaced with 90 µL of basal DMEM-HG containing 0.5 mg/mL MTT. Plates were returned to the incubator for 4 h prior to aspiration of excess MTT. Formazan crystals were then dissolved with 50 µL/well DMSO for 2 minutes at RT under gentle agitation. Well absorbance at 570 nm wavelength was then immediately measured on a UV/Vis absorbance microplate reader (SPECTROstar® Nano, BMG LABTECH). Metabolic viability, following signal background-correction, was calculated as the percentage of signal normalized to the signal of the respective fully-untreated or chemotherapeutic-alone cells.
# [14] = test system: U2OS + SSTR2A cells; test: [^177Lu]LuCl3 uptake; assay type: cell-based, human; conditions: 0.97 MBq, 24-hour incubation, N = 3 (Figure S3)
# Description: (§4) The following day, 0.97 MBq [^177Lu]LuCl3 was added to wells and incubated for 24 hours. […] Data is presented as both percentage uptake of total added activity and normalised as Bq/cell uptake.
# [15] = test system: U2OS cells; test: [^177Lu]LuCl3 uptake; assay type: cell-based, human; conditions: 0.97 MBq, 24-hour incubation, N = 3 (Figure S3)
# Description: as §4
# [16] = Homo sapiens, N = 3, read-out: GI50
molecule,measurement,setting,value
"Nc1ccn([C@@H]2O[C@H](CO)[C@@H](O)C2(F)F)c(=O)n1 [Gemcitabine, gemcitabine]",Effect on viability of combining chemotherapeutic with [^177Lu]Lu-DOTA-TATE,[1],did not affect viability
same,Effect on viability of combining chemotherapeutic with [^177Lu]Lu-DOTA-TATE,[2],did not affect viability
same,potentiation of X-ray radiation effects by chemotherapeutic pre-treatment (viability),[3],potentiation of radiation effects was seen
same,potentiation of X-ray radiation effects by chemotherapeutic pre-treatment (viability),[4],potentiation of radiation effects was seen
same,GI50,[5]; [16],0.0022 µg/mL
same,GI50,[6],0.0047 µg/mL
"NC(=O)NO [Hydroxyurea, hydroxyurea]",Effect on viability of combining chemotherapeutic with [^177Lu]Lu-DOTA-TATE,[1],did not affect viability
same,Effect on viability of combining chemotherapeutic with [^177Lu]Lu-DOTA-TATE,[2],did not affect viability
same,potentiation of X-ray radiation effects by chemotherapeutic pre-treatment (viability),[3],potentiation of radiation effects was seen
same,potentiation of X-ray radiation effects by chemotherapeutic pre-treatment (viability),[4],potentiation of radiation effects was seen
same,GI50,[5]; N = 3,248.1 (152) µg/mL
"NC(=S)N/N=C/c1ncccc1N [Triapine, triapine]",Effect on viability of combining chemotherapeutic with [^177Lu]Lu-DOTA-TATE,[1],did not affect viability
same,Effect on viability of combining chemotherapeutic with [^177Lu]Lu-DOTA-TATE,[2],did not affect viability
same,potentiation of X-ray radiation effects by chemotherapeutic pre-treatment (viability),[3],potentiation of radiation effects was seen
same,potentiation of X-ray radiation effects by chemotherapeutic pre-treatment (viability),[4],potentiation of radiation effects was seen
same,GI50,[5]; [16],0.327 µg/mL
same,GI50,[6],0.12 µg/mL
"C[C@@H](O)[C@H](NC(=O)[C@@H]1CSSC[C@H](NC(=O)[C@@H](Cc2ccccc2)NC(=O)CN2CCN(CC(=O)O)CCN(CC(=O)O)CCN(CC(=O)O)CC2)C(=O)N[C@@H](Cc2ccc(O)cc2)C(=O)N[C@H](Cc2c[nH]c3ccccc23)C(=O)N[C@@H](CCCCN)C(=O)N[C@@H]([C@@H](C)O)C(=O)N1)C(=O)O [[^177Lu]Lu-DOTA-TATE, [^177Lu]Lu-[DOTA^0-Tyr^3]octreotate, metal not drawn]",Uptake (mBq/cell),"[7]; U2OS + SSTR2A cells, 24-hour incubation, 0.74–1.03 MBq, N = 3–4",216.9 ± 47.4 mBq/cell
same,Uptake (%AA),"[7]; U2OS + SSTR2A cells, 24-hour incubation, 0.74–1.03 MBq, percentage added activity, N = 3–4",17.8 ± 2.4 %AA
same,Internalized quantities of [^177Lu]Lu-DOTA-TATE,"[7]; untreated (no chemotherapeutic) U2OS + SSTR2A cells, 24 h, 0.7–1.03 MBq",0.2 ± 0.05 Bq/cell
same,Cytoplasm (%) of total uptake of [^177Lu]Lu-DOTA-TATE,[8],93.5 ± 0.9%
same,Membrane (%) of total uptake of [^177Lu]Lu-DOTA-TATE,[8],4.1 ± 0.6%
same,Nucleus (%) of total uptake of [^177Lu]Lu-DOTA-TATE,[8],2.3 ± 0.4%
same,Cytoplasm (%) of total uptake of [^177Lu]Lu-DOTA-TATE,[9],90.2 ± 1.7%
same,Membrane (%) of total uptake of [^177Lu]Lu-DOTA-TATE,[9],7.3 ± 1.0%
same,Nucleus (%) of total uptake of [^177Lu]Lu-DOTA-TATE,[9],2.5 ± 0.7%
same,Uptake (mBq/cell),[10],6.5 ± 6.3 mBq/cell
same,Uptake (%AA),[10]; percentage added activity,0.5 ± 0.3 %AA
same,Uptake (mBq/cell),[11],4.4 ± 1.0 mBq/cell
same,Uptake (%AA),[11]; percentage added activity,0.3 ± 0.0 %AA
same,Uptake (mBq/cell),[12],111.2 ± 16.5 mBq/cell
same,Uptake (%AA),[12]; percentage added activity,9.6 ± 0.6 %AA
[177Lu+3].[Cl-].[Cl-].[Cl-] [[^177Lu]LuCl3],metabolic viability after [^177Lu]LuCl3,"[13]; SSTR2A-expressing cells, 0.97 MBq for 24 hours, N = 3 (Figure S4)",only minor reductions in metabolic viability
same,Uptake of unchelated [^177Lu]LuCl3,[14],low
same,Uptake of unchelated [^177Lu]LuCl3,[15],low
DOTA-TATE,metabolic viability after non-radioactive DOTA-TATE,"[13]; U2OS + SSTR2A cells, 25 nM for 24 h, N = 4 (Figure S5)",did not reduce metabolic viability
